Data: patent publication US11661396B2, “Crystalline forms of zuclomiphene citrate” (Apotex Inc., priority 2020, dated 2023)
Structures can show the parent of a compound that is named as a salt. Each block holds one molecule with its values, some of them ahead of it.

How the values were obtained:
[1] = PXRD studies of capped and uncapped samples maintained in a 40° C./75% RH stability chamber; format: physicochemical
Method: Zuclomiphene citrate Form APO-1 can be characterized by a PXRD diffractogram comprising, among other peaks, characteristic peaks, expressed in degrees 2θ (±0.2°), at 8.8°, 9.6° and 11.7°. Preferably, the PXRD diffractogram further comprises at least three peaks, expressed in degrees 2θ (±0.2°), selected from the group consisting of 10.9°, 12.4°, 14.7°, 14.9°, 17.3°, 17.8°, 18.6°, 19.9°, 20.5°, 23.6° and 25.4°. More preferably, the PXRD diffractogram further comprises peaks, expressed in degrees 2θ (±) 0.2°, at 10.9°, 12.4°, 14.7°, 14.9°, 17.3°, 17.8°, 18.6°, 19.9°, 20.5°, 23.6° and 25.4°.
Zuclomiphene citrate Form APO-III can be characterized by a PXRD diffractogram comprising, among other peaks, characteristic peaks, expressed in degrees 2θ (±0.2°), at 8.7°, 9.8° and 10.5°. Preferably, the PXRD diffractogram further comprises at least three peaks, expressed in degrees 2θ (±0.2°), selected from the group consisting of 11.6°, 12.3°, 15.3°, 16.9°, 18.0°, 18.6°, 19.4°, 20.4°, 21.0° and 24.5°. More preferably, the PXRD diffractogram further comprises peaks, expressed in degrees 2θ (±0.2°), at 11.6°, 12.3°, 15.3°, 16.9°, 18.0°, 18.6°, 19.4°, 20.4°, 21.0° and 24.5°. […]
PXRD diffractograms were recorded on a Bruker D8 Discover powder X-ray diffractometer (Bruker-AXS, Karlsruhe, Germany). […] Raw data were evaluated using the program EVA (Bruker-AXS, Karlsruhe, Germany).

[2] = Thermodynamic stability of the crystalline form; format: physicochemical
Description: Zuclomiphene citrate Form APO-IV can be prepared by gradual addition of a solution of citric acid in a suitable solvent, preferably an alcohol or ketone solvent such as methanol or acetone, to a solution of zuclomiphene free base in a suitable solvent, preferably an alcohol solvent such as 2-methyl-1-propanol or 1-butanol, more preferably an ester solvent, such as ethyl acetate. Preferably, the solution of zuclomiphene free base is heated to an elevated temperature prior to addition of the citric acid solution, preferably in the range of about 50° C. to about 70° C. Following addition, the resulting mixture is preferably charged with Form APO-IV seeds and maintained at elevated temperature for a time (′aged), preferably in the range of about 16 hours to about 4 days, more preferably in the range of about 16 hours to about 48 hours. Following aging, the resulting mixture is preferably cooled to a temperature in the range of about 0° C. to about 35° C., most preferably room temperature, prior to isolation of the solid by filtration and drying, if necessary. Drying can be conducted in vacuo, preferably at a temperature in the range of about 50° C. to about 70° C., preferably for about 18 hours to about 3 days.

[3] = test system: hot flashes in men with prostate cancer on androgen deprivation therapy; conditions: 50 mg zuclomiphene citrate, interim Phase 2 clinical trial results; cited from earlier work

Structure (SMILES): CCN(CC)CCOc1ccc(/C(=C(\Cl)c2ccccc2)c2ccccc2)cc1 [Form APO-I, zuclomiphene citrate]
- change in the crystalline form (PXRD) ([1]; at least 4 weeks): no change in the crystalline form occurred

- thermodynamic stability [2]: thermodynamically stable
Structure (SMILES): CCN(CC)CCOc1ccc(/C(=C(\Cl)c2ccccc2)c2ccccc2)cc1 [Form APO-IV, zuclomiphene citrate]

Structure (SMILES): CCN(CC)CCOc1ccc(/C(=C(\Cl)c2ccccc2)c2ccccc2)cc1 [Form APO-III, zuclomiphene citrate]
- change in the crystalline form (PXRD) ([1]; at least 8 weeks): no change in the crystalline form occurred

Structure (SMILES): CCN(CC)CCOc1ccc(/C(=C(\Cl)c2ccccc2)c2ccccc2)cc1 [zuclomiphene citrate, 2-[4-[(Z)-2-chloro-1,2-diphenylethenyl]phenoxy]-N,N-diethylethanamine]
- decrease in moderate to severe hot flashes from baseline [3]: statistically significant decrease
